This test has as its system IL-6. The test is described as follows: IL-6 inhibition in LPS-stimulated THP-1 monocytes (HTRF). Type of test: cell-based, human. Particulars: Homo sapiens, THP-1 cells; for EC50: 500 ng/mL LPS, 22 h, HTRF IL-6 readout, 10-point dose-response from 10 μM; for inhibition at 10 µM: LPS stimulated, given only where EC50 >10 μM, top concentration 10 μM, read-out: percentage in parentheses beside EC50 >10 (IL-6 inhibition). A digest of the protocol: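 THP-1 cells serum-reduced (1% FBS, 24 h), then 5000 cells/well preincubated 2 h with compound (10-point 1:3 series from 10 μM, 0.1% DMSO) before 500 ng/mL LPS for 22 h at 37 °C. Secreted IL-6 quantified by HTRF 665/620 ratio; DMSO-normalised duplicates fitted to four-parameter EC50; above 10 μM, % inhibition at 10 μM given.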
For orientation: In TR-FRET formats the signal depends on donor and acceptor labels being close together.

Consider 30 molecules from patent publication US20180214428A1, “3-(1H-INDOL-2-YL)-1H-PYRAZOLO[3,4-B]PYRIDINES AND THERAPEUTIC USES THEREOF” (Samumed, LLC, priority 2015, published 2018).

Molecules are shown by their SMILES.

One may read the EC50 as the concentration giving half of the maximal effect. The low end stands for higher potency in that assay, the high end for lower potency in that assay. For the molecule `Fc1cccc(-c2cccc3[nH]c(-c4n[nH]c5ncc(-c6cccnc6)cc45)cc23)c1` [Compound 2, 3-(4-(3-Fluorophenyl)-1H-indol-2-yl)-5-(pyridin-3-yl)-1H-pyrazolo[3,4-b]pyridine], the concentration giving a half-maximal response (EC50) stood at 0.015 µM. What is called inhibition is the change of the read-out against control, counted positive when it falls. As for `CCCC(=O)Nc1cncc(-c2cnc3[nH]nc(-c4cc5c(-c6cccc(F)c6)cccc5[nH]4)c3c2)c1` [Compound 14, N-(5-(3-(4-(3-Fluorophenyl)-1H-indol-2-yl)-1H-pyrazolo[3,4-b]pyridin-5-yl)pyridin-3-yl)butyramide], the 50% effective concentration (EC50) is above 10 µM and the inhibition at 10 µM is 20.3%. Take `Fc1cccc(-c2cccc3[nH]c(-c4n[nH]c5ncc(-c6ccncc6)cc45)cc23)c1` [Compound 15, 3-(4-(3-Fluorophenyl)-1H-indol-2-yl)-5-(pyridin-4-yl)-1H-pyrazolo[3,4-b]pyridine]: the EC50 was above 10 µM and the inhibition at 10 µM came out at 55.9%. Take `O=C(Nc1cncc(-c2cnc3[nH]nc(-c4cc5c(-c6cccc(F)c6)cccc5[nH]4)c3c2)c1)C1CCCCC1` [Compound 19, N-(5-(3-(4-(3-Fluorophenyl)-1H-indol-2-yl)-1H-pyrazolo[3,4-b]pyridin-5-yl)pyridin-3-yl)cyclohexanecarboxamide]: the 50% effective concentration (EC50) was above 10 µM and the inhibition at 10 µM is 19.2%. For `Cc1ccncc1-c1cnc2[nH]nc(-c3cc4c(-c5ccc(F)cc5)cccc4[nH]3)c2c1` [Compound 27, 3-(4-(4-Fluorophenyl)-1H-indol-2-yl)-5-(4-methylpyridin-3-yl)-1H-pyrazolo[3,4-b]pyridine], the EC50 is above 10 µM and the inhibition at 10 µM worked out at 41.7%.

Take `CC(C)(C)C(=O)Nc1cncc(-c2cnc3[nH]nc(-c4cc5c(-c6ccc(F)cc6)cccc5[nH]4)c3c2)c1` [Compound 30, N-(5-(3-(4-(4-Fluorophenyl)-1H-indol-2-yl)-1H-pyrazolo[3,4-b]pyridin-5-yl)pyridin-3-yl)pivalamide]: the EC50 is above 10 µM and the inhibition at 10 µM came to 42.8%.

`O=C(Nc1cncc(-c2cnc3[nH]nc(-c4cc5c(-c6ccc(F)cc6)cccc5[nH]4)c3c2)c1)c1ccccc1` [Compound 32, N-(5-(3-(4-(4-Fluorophenyl)-1H-indol-2-yl)-1H-pyrazolo[3,4-b]pyridin-5-yl)pyridin-3-yl)benzamide]: the EC50 was above 10 µM and the inhibition at 10 µM was 17.7%. With `O=C(Nc1cncc(-c2cnc3[nH]nc(-c4cc5c(-c6ccc(F)cc6)cccc5[nH]4)c3c2)c1)C1CCC1` [Compound 41, N-(5-(3-(4-(4-Fluorophenyl)-1H-indol-2-yl)-1H-pyrazolo[3,4-b]pyridin-5-yl)pyridin-3-yl)cyclobutanecarboxamide], the EC50 is above 10 µM and the inhibition at 10 µM turned out to be 10.7%. In the case of `CC(C)(C)CC(=O)Nc1cncc(-c2cnc3[nH]nc(-c4cc5c(-c6ccccc6F)cccc5[nH]4)c3c2)c1` [Compound 61, N-(5-(3-(4-(2-Fluorophenyl)-1H-indol-2-yl)-1H-pyrazolo[3,4-b]pyridin-5-yl)pyridin-3-yl)-3,3-dimethylbutanamide], the response was half-maximal at 4.64 µM (EC50). Still for that read-out and setting: as for `O=C(Nc1cncc(-c2cnc3[nH]nc(-c4cc5c(-c6ccccc6F)cccc5[nH]4)c3c2)c1)C1CCCC1` [Compound 66, N-(5-(3-(4-(2-Fluorophenyl)-1H-indol-2-yl)-1H-pyrazolo[3,4-b]pyridin-5-yl)pyridin-3-yl)cyclopentanecarboxamide], the figure is 9.78 µM.

`Cc1ccncc1-c1cnc2[nH]nc(-c3cc4c(-c5ccncc5)cccc4[nH]3)c2c1` [Compound 99, 5-(4-Methylpyridin-3-yl)-3-(4-(pyridin-4-yl)-1H-indol-2-yl)-1H-pyrazolo[3,4-b]pyridine]: the EC50 was found to be 0.062 µM. Still for that read-out and setting: then `c1cc(-c2ccncc2)c2cc(-c3n[nH]c4ncc(-c5ccncc5)cc34)[nH]c2c1` [Compound 111, 5-(Pyridin-4-yl)-3-(4-(pyridin-4-yl)-1H-indol-2-yl)-1H-pyrazolo[3,4-b]pyridine], with 4.17 µM; and `O=C(Nc1cncc(-c2cnc3[nH]nc(-c4cc5c(-c6ccncc6)cccc5[nH]4)c3c2)c1)C1CCCCC1` [Compound 115, N-(5-(3-(4-(Pyridin-4-yl)-1H-indol-2-yl)-1H-pyrazolo[3,4-b]pyridin-5-yl)pyridin-3-yl)cyclohexanecarboxamide], with 0.594 µM. `c1ccc(CNCc2cncc(-c3cnc4[nH]nc(-c5cc6c(-c7ccncc7)cccc6[nH]5)c4c3)c2)cc1` [Compound 116, N-Benzyl-1-(5-(3-(4-(pyridin-4-yl)-1H-indol-2-yl)-1H-pyrazolo[3,4-b]pyridin-5-yl)pyridin-3-yl)methanamine]: the EC50 is above 10 µM and the inhibition at 10 µM was found to be 41.7%. Consider `c1ccc(-c2cnc3[nH]nc(-c4cc5c(-c6ccncc6)cccc5[nH]4)c3c2)nc1` [Compound 120, 5-(Pyridin-2-yl)-3-(4-(pyridin-4-yl)-1H-indol-2-yl)-1H-pyrazolo[3,4-b]pyridine], for which the EC50 stood at 0.103 µM. As for `O=C(Nc1cncc(-c2cnc3[nH]nc(-c4cc5c(N6CCCCC6)cccc5[nH]4)c3c2)c1)c1ccccc1` [Compound 155, N-(5-(3-(4-(Piperidin-1-yl)-1H-indol-2-yl)-1H-pyrazolo[3,4-b]pyridin-5-yl)pyridin-3-yl)benzamide], the EC50 was above 10 µM and the inhibition at 10 µM is 21.8%. Turning to `CCCCC(=O)Nc1cncc(-c2cnc3[nH]nc(-c4cc5c(N6CCCCC6)cccc5[nH]4)c3c2)c1` [Compound 163, N-(5-(3-(4-(Piperidin-1-yl)-1H-indol-2-yl)-1H-pyrazolo[3,4-b]pyridin-5-yl)pyridin-3-yl)pentanamide], the half-maximal effective concentration (EC50) was above 10 µM and the inhibition at 10 µM stood at 43.2%. The like results for `CC(C)CC(=O)Nc1cncc(-c2cnc3[nH]nc(-c4cc5c(N6CCN(C)CC6)cccc5[nH]4)c3c2)c1` [Compound 202, 3-Methyl-N-(5-(3-(4-(4-methylpiperazin-1-yl)-1H-indol-2-yl)-1H-pyrazolo[3,4-b]pyridin-5-yl)pyridin-3-yl)butanamide] were, in that order, above 10 µM and 0%. As to `CC(C)C(=O)Nc1cncc(-c2cnc3[nH]nc(-c4cc5c(N6CCN(C)CC6)cccc5[nH]4)c3c2)c1` [Compound 209, N-(5-(3-(4-(4-Methylpiperazin-1-yl)-1H-indol-2-yl)-1H-pyrazolo[3,4-b]pyridin-5-yl)pyridin-3-yl)isobutyramide], the EC50 was 1.21 µM. Still for that read-out and setting: as for `CN1CCN(c2cccc3[nH]c(-c4n[nH]c5ncc(-c6ccncc6)cc45)cc23)CC1` [Compound 218, 3-(4-(4-Methylpiperazin-1-yl)-1H-indol-2-yl)-5-(pyridin-4-yl)-1H-pyrazolo[3,4-b]pyridine], the figure is 0.106 µM. `CN1CCN(c2cccc3[nH]c(-c4n[nH]c5ncc(-c6cncnc6)cc45)cc23)CC1` [Compound 227, 3-(4-(4-Methylpiperazin-1-yl)-1H-indol-2-yl)-5-(pyrimidin-5-yl)-1H-pyrazolo[3,4-b]pyridine] had a 50% effective concentration (EC50) of 3.9 µM. Still for that read-out and setting: then `c1cncc(-c2cnc3[nH]nc(-c4cc5ccccc5[nH]4)c3c2)c1` [Compound 231, 3-(1H-Indol-2-yl)-5-(pyridin-3-yl)-1H-pyrazolo[3,4-b]pyridine], with 0.019 µM. The same measure, in the same setting: then `CC(C)(C)CC(=O)Nc1cncc(-c2cnc3[nH]nc(-c4cc5ccccc5[nH]4)c3c2)c1` [Compound 242, N-(5-(3-(1H-Indol-2-yl)-1H-pyrazolo[3,4-b]pyridin-5-yl)pyridin-3-yl)-3,3-dimethylbutanamide], with 0.303 µM. Take `O=C(Nc1cncc(-c2cnc3[nH]nc(-c4cc5ccccc5[nH]4)c3c2)c1)C1CCCCC1` [Compound 249, N-(5-(3-(1H-Indol-2-yl)-1H-pyrazolo[3,4-b]pyridin-5-yl)pyridin-3-yl) cyclohexanecarboxamide]: the EC50 is above 10 µM and the inhibition at 10 µM came out at 14.2%. For the molecule `c1ccc(CNCc2cncc(-c3cnc4[nH]nc(-c5cc6ccccc6[nH]5)c4c3)c2)cc1` [Compound 250, 1-(5-(3-(1H-Indol-2-yl)-1H-pyrazolo[3,4-b]pyridin-5-yl)pyridin-3-yl)-N-benzylmethanamine], the 50% effective concentration (EC50) amounted to 4 µM. `CC(C)(C)C(=O)Nc1cncc(-c2cnc3[nH]nc(-c4cc5c(-c6ccoc6)cccc5[nH]4)c3c2)c1` [Compound 290, N-(5-(3-(4-(Furan-3-yl)-1H-indol-2-yl)-1H-pyrazolo[3,4-b]pyridin-5-yl)pyridin-3-yl)pivalamide]: the concentration giving a half-maximal response (EC50) was above 10 µM and the inhibition at 10 µM is 31.2%. The corresponding values for `Cc1ccncc1-c1cnc2[nH]nc(-c3cc4c(-c5cc(F)cc(CNS(C)(=O)=O)c5)cccc4[nH]3)c2c1` [Compound 455, N-(3-Fluoro-5-(2-(5-(4-methylpyridin-3-yl)-1H-pyrazolo[3,4-b]pyridin-3-yl)-1H-indol-4-yl)benzyl)methanesulfonamide] are above 10 µM and 54.8%. Turning to `CS(=O)(=O)NCc1cc(F)cc(-c2cccc3[nH]c(-c4n[nH]c5ncc(-c6ccccn6)cc45)cc23)c1` [Compound 478, N-(3-Fluoro-5-(2-(5-(pyridin-2-yl)-1H-pyrazolo[3,4-b]pyridin-3-yl)-1H-indol-4-yl)benzyl)methanesulfonamide], the EC50 was determined as 0.69 µM. On the same count and under the same terms, then `c1ccc(CNCc2cncc(-c3cnc4[nH]nc(-c5cc6ncccc6[nH]5)c4c3)c2)cc1` [Compound 502, 1-(5-(3-(1H-Pyrrolo[3,2-b]pyridin-2-yl)-1H-pyrazolo[3,4-b]pyridin-5-yl)pyridin-3-yl)-N-benzylmethanamine], with 6.01 µM.

Take `FC1(F)CCN(Cc2cncc(-c3cnc4[nH]nc(-c5cc6ncccc6[nH]5)c4c3)c2)C1` [Compound 504, 5-(5-((3,3-Difluoropyrrolidin-1-yl)methyl)pyridin-3-yl)-3-(1H-pyrrolo[3,2-b]pyridin-2-yl)-1H-pyrazolo[3,4-b]pyridine]: the response was half-maximal at 0.116 µM (EC50).
